Reference: publication PMC11430712, “The Endocannabinoid Peptide RVD-Hemopressin Is a TRPV1 Channel Blocker” (Biomolecules, 2024)
Entries after “also recorded” stand apart in the source; their conditions may differ. Each block holds one molecule with its values, some of them ahead of it. Peptide text beside a SMILES is read from it.

How the values were obtained:
TRPV1 channel = tested on: TRPV1 channel; set-up: method as in 4 sources, ref [12]; anandamide and 2-AG ref [13],[14],[15],[16] ||| ref [88],[89] = [88]; PMID 27281200; doi:10.1038/nature17964; 88. Gao Y. Cao E. Julius D. Cheng Y. TRPV1 structures in nanodiscs reveal mechanisms of ligand and lipid action Nature 2016 534 347 351 10.1038/nature17964 27281200 PMC4911334 || [89]; PMID 37117175; doi:10.1038/s41467-023-38162-9; 89. Neuberger A. Oda M. Nikolaev Y.A. Nadezhdin K.D. Gracheva E.O. Bagriantsev S.N. Sobolevsky A.I. Human TRPV1 structure and inhibition by the analgesic SB-366791 Nat. Commun. 2023 14 2451 10.1038/s4 ||| ref [90] = [90]; PMID 38698206; doi:10.1038/s41594-024-01299-2; 90. Arnold W.R. Mancino A. Moss F.R. Frost A. Julius D. Cheng Y. Structural basis of TRPV1 modulation by endogenous bioactive lipids Nat. Struct. Mol. Biol. 2024 1 9 10.1038/s41594-024-01299-2 3869820 ||| ref [67] = [67]; PMID 29117570; doi:10.1016/j.celrep.2017.10.063; 67. Nersesyan Y. Demirkhanyan L. Cabezas-Bratesco D. Oakes V. Kusuda R. Dawson T. Sun X. Cao C. Cohen A.M. Chelluboina B. Oxytocin Modulates Nociception as an Agonist of Pain-Sensing TRPV1 Cell Rep. 2; settings: cited from earlier work; for TRPV1 channel state: vanilloid pocket, ref [90]; for TRPV1 activation: capsaicin ref [12], anandamide and 2-AG ref [13],[14],[15],[16]
Excerpt: The transient receptor potential (TRP) channels family involves several subfamilies, including the vanilloid (TRPVs) group. TRPV1, a member of the TRPV subfamily, is a non-selective cationic homotetramer channel. It is known to be activated by various stimuli, including temperature, capsaicin (the principal compound in chili peppers), and endocannabinoids such as anandamide (AEA) and 2-arachidonoylglycerol (2-AG). The TRPV1 channel protein is found in the central (CNS) and peripheral nervous system (PNS). In the CNS, TRPV1 is expressed in the prefrontal cort ... || Molecular dynamics (MD) simulations allow studying protein dynamics at an atomic level under physiological conditions, enhancing our understanding of various proteins, including ion channels like TRPV1 [82]. These simulations provide insight into their function, conformational changes, and interactions with different ligands.

[1] = individuals with osteoarthritis; ref [99]; cited from earlier work
Excerpt: Capsaicin creams and patches have been used in the treatment of muscle pain, neuropathic pain, arthritis, and migraines. […] CNTX-4975 has been developed as a treatment option for pain in individuals with osteoarthritis.

rats = settings: cited from earlier work
Excerpt: Despite this, evidence of a direct interaction between Hp and the TRPV1 channel is lacking. We speculate that Hp binds and activates TRPV1, possibly engaging the same binding site as RVD-Hp. […] Thus, RVD-Hp emerges and holds potential as a novel modulator for non-opioid analgesia and anxiety treatment. […] Moreover, since RVD-Hp effectively blocks the open TRPV1 channel, it presents a promising approach to inhibit the population of TRPV1 channels that are pathologically over-activated, thereby ... || (+ 1 further places)

human TRPV1 channel [2] = molecular target: T1, human TRPV1 channel (Homo sapiens, UniProt Q8NER1); experiment: Whole-cell voltage-clamp recording of TRPV1 currents, HEK293 cells with human TRPV1-GFP; type: cell-based
T1 construct: host or cells: HEK293
T1 sequence (Q8NER1 whole entry): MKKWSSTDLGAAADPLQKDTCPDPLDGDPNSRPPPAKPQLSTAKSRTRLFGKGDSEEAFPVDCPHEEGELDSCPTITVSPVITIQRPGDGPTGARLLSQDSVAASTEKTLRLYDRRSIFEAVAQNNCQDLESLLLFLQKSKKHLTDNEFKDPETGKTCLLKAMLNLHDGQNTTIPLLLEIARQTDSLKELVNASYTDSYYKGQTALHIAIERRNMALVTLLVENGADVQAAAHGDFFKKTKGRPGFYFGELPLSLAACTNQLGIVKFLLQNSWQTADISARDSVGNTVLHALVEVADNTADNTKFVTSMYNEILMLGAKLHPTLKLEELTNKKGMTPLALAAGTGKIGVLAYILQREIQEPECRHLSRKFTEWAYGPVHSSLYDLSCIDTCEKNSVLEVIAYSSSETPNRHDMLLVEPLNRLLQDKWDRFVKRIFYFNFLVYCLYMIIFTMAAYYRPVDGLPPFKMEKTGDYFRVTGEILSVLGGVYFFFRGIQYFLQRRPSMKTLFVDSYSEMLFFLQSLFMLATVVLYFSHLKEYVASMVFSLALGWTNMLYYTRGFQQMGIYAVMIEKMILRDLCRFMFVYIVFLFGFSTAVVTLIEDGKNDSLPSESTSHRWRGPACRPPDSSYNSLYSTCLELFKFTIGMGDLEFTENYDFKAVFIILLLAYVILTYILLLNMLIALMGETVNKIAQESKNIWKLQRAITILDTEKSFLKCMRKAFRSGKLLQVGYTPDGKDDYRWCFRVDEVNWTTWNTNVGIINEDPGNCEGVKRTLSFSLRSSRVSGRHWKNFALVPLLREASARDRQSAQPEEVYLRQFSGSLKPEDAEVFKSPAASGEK
Method: (§1) Dr. Alejandro Maureira, Universidad Católica del Maule, Chile, generously provided HEK293 cells. The cells were cultured in T75 flasks (Corning Inc., Corning, NY, USA) in a humidified atmosphere at 37 °C with 5% CO2 in Dulbecco’s Modified Eagle Medium (DMEM) with high glucose (Cytiva, Marlborough, MA, USA), supplemented with 10% fetal bovine serum (Cytiva, Marlborough, MA, USA) and a mixture of 100 IU/mL penicillin and 100 µg/mL streptomycin (Corning Inc., Corning, NY, USA) in a CO2CELL incubator (MMM Group, Munich, Germany). This procedure was used to maintain the cells for all of the experiments.
(§2) HEK293 cells were transfected with the human TRPV1 channel coupled to GFP in its C-terminus (TRPV1-GFP, catalog #: RG217653, Origene, Rockville, MD, USA). […] Transfections were conducted using Lipofectamine 3000 (Invitrogen, Waltham, MA, USA), according to the manufacturer’s instructions. Experimental protocols were performed 24 h post-transfection.
Untransfected and transfected HEK293 cells with the human TRPV1-GFP were recorded using a whole-cell voltage clamp. Cells were cultured in 15 mm round coverslips pretreated with 0.1 mg/mL poly-L-lysine (Gibco, Billings, MT, USA) and transfected with TRPV1-GFP plasmid. TRPV1-GFP-positive cells were identified using a 405 nm LED light in a Nikon Eclipse Ts2 inverted microscope. Borosilicate pipettes (nº 1B150F-4, World Precision Instruments, Sarasota, FL, USA) of 2.8’5 MΩ were used. Pipettes were pulled with a P-97 Micropipette Puller (Sutter Instruments, Novato, CA, USA). The extracellular solution contained (in mM) 140 NaCl, 5 KCl, 2 CaCl2, 1 MgCl2, 10 HEPES, and 6 glucose at pH 7.4. The internal solution contained (in mM) 140 CsCl, 4 MgCl2, 10 EGTA, and 10 HEPES-CsOH at pH 7.3. All the experiments were recorded using a HEKA EPC9 amplifier. The holding potential was −80 mV. A 500 ms voltage ramp from −80 to 80 mV was applied to record TRPV1 currents. The sample frequency was 50 kHz, and the signals were filtered at 2.9 kHz using PatchMaster software. Data were analyzed using Clampfit v.7 software (Molecular Devices, San Jose, CA, USA). The extracellular solution and ligands were administered using a VC-8 perfusion system (~2 mL/s, Warner Instruments, Holliston, MA, USA). We used capsaicin (Cayman Chemicals, nº 92350), SB366791 (nº 11019, Cayman Chemicals, Ann Arbor, MI, USA), and RVD-Hp (Synbio Technologies, Monmouth Junction, NJ, USA). We used dimethyl sulfoxide (DMSO, Sigma-Aldrich, St. Louis, MO, USA) and untransfected cells as controls. Electrophysiological recordings were performed at room temperature.
(§3) The data were analyzed and plotted using GraphPad software v10.0.2. We used the Shapiro–Wilk test to determine the data distribution. […] Statistically significant values were considered when p values were * p < 0.05, ** p < 0.01, *** p < 0.001, and **** p < 0.0001.

[3] = ref [106]; cited from earlier work
Excerpt: Chronic pain is often accompanied by the development of depression. […] However, a significant challenge in utilizing RVD-Hp as a therapeutic agent lies in the inherent sensitivity of peptides to enzymatic degradation. […] Developing carriers that can stabilize RVD-Hp and facilitate its delivery to the brain is essent ...

human TRPV1 channel [4] = molecular target: T1, human TRPV1 channel; experiment: Calcium imaging (Fura Red-AM), HEK293 cells transfected with hTRPV1-GFP; type: cell-based; settings: pH 7.4, room temperature
Method: as §1, §2, §3

[5] = molecular target: human TRPV1 channel coupled to GFP in its C-terminus (human) (UniProt Q8NER1)
Chain of human TRPV1 channel coupled to GFP in its C-terminus (human) (Q8NER1 whole entry): as above

Molecule: Phosphoinositide
- TRPV1 channel state (TRPV1 channel): favor the close state of the TRPV1 channel

Molecule: oxytocin
- TRPV1 activation and nociception (oxytocin) (TRPV1 channel; ref [67]): activate the TRPV1 channel and modulate nociception

Molecule: COc1cc(CNC(=O)CCCC/C=C/C(C)C)ccc1O [CNTX-4975]
- Adverse effects [1]: nausea, hypotension, oral hypoesthesia, and erythema

Molecule: hemopressin
- Anxiety-like behavior (Hp in rats) (rats; rats, ref [8],[9]): induces anxiety-like behavior in rats
- Anxiety-/depressive-like behavior (rats; rodent models, ref [8]): induce anxiogenic and depressive-like behaviors

Molecule: CC(C)C[C@H](NC(=O)[C@H](CC(C)C)NC(=O)[C@H](CCCCN)NC(=O)[C@H](Cc1ccccc1)NC(=O)[C@H](CC(N)=O)NC(=O)[C@@H](NC(=O)[C@@H]1CCCN1C(=O)[C@H](CC(=O)O)NC(=O)[C@@H](NC(=O)[C@@H](N)CCCNC(=N)N)C(C)C)C(C)C)C(=O)N[C@@H](CO)C(=O)N[C@@H](Cc1cnc[nH]1)C(=O)O [RVD-Hp, RVD-hemopressin] (H-RVDPVNFKLLSH-OH)
- IC50 (human TRPV1 channel [2]): 18.6 µM
- Blood–brain barrier crossing [3]: cannot cross the blood–brain barrier
- Stability in plasma [3]: low stability in plasma

Molecule: phosphatidylinositol 4,5-biphosphate
- TRPV1 channel state (TRPV1 channel): favor the close state of the TRPV1 channel

Molecule: CCCCC/C=C\C/C=C\C/C=C\C/C=C\CCCC(=O)NCCO [anandamide]
- TRPV1 activation (TRPV1 channel): activated

Molecule: COc1cccc(NC(=O)/C=C/c2ccc(Cl)cc2)c1 [SB366791]
- Block of Cap-induced increase in intracellular Ca^2+ concentration (human TRPV1 channel [4]; 1 µM Cap + 10 µM RVD-Hp (n: 60, * p < 0.032) or 10 µM SB366791 (n: 20, * p < 0.0113), comparison to Cap): partially blocked
- Effect on intracellular Ca^2+ of the compound alone (human TRPV1 channel [4]; 10 µM alone, no Cap, RVD-Hp n: 59, SB366791 n: 51): Neither 10 µM RVD-Hp nor 10 µM SB366791 augmented the intracellular Ca^2+
- Current of compound alone compared with Cap-induced TRPV1 current (human TRPV1 channel [2]; 10 µM alone vs 1 µM Cap, ***** p < 0.0001): significantly different from the Cap-induced TRPV1 current
- Current of compound alone compared with control (human TRPV1 channel [2]; 10 µM alone vs control (n: 7)): not different from the control
- TRPV1 currents induced by the compound alone (human TRPV1 channel [2]; 10 µM alone, +80 mV, RVD-Hp n: 4, SB366791 n: 3, room temperature): Neither 10 µM RVD-Hp nor 10 µM SB366791 alone induced TRPV1 currents
- Block of Cap-induced TRPV1 currents (human TRPV1 channel [2]; 10 µM with 1 µM Cap, +80 mV, RVD-Hp n: 4 (* p < 0.0214), SB366791 n: 4 (**** p < 0.0001), comparison to capsaicin, room temperature): blocked
- Effect on Hp-induced anxious behavior (rats; SB366791 on Hp-induced behavior, ref [8]): mitigating impact; also recorded: mitigated
- TRPV1 binding mode of antagonists (TRPV1 channel; requiring four molecules to induce channel closure, ref [88],[89]): bind to the vanilloid pocket and compete with capsaicin

Molecule: CCCCC/C=C\C/C=C\C/C=C\C/C=C\CCCC(=O)OC(CO)CO [2-arachidonoylglycerol]
- TRPV1 activation (TRPV1 channel): activated

Molecule: lysophosphatidic acid
- TRPV1 channel state (TRPV1 channel): induces channel opening

- whole-cell voltage clamp of HEK293 cells expressing TRPV1-GFP: inhibition of the TRPV1 current induced by 1 µM capsaicin (at +80 mV), RVD-Hp at 1, 10, 20 and 50 µM; IC50 [5]: 18.6 µM
Molecule: RVDPVNFKLLSH [RVD-hemopressin]
